# According to the supplement of paper PMC10307832:
# Legend:
# Assay in all cases: relative viability (nuclei count vs DMSO), 5 days (fraction); higher = more cells survive
# Bosutinib + Trametinib = compound: COc1cc(Nc2c(C#N)cnc3cc(OCCCN4CCN(C)CC4)c(OC)cc23)c(Cl)cc1Cl [Bosutinib] + CC(=O)Nc1cccc(-n2c(=O)n(C3CC3)c(=O)c3c(Nc4ccc(I)cc4F)n(C)c(=O)c(C)c32)c1 [Trametinib] (partner 0.02 µM)
# Method in brief: (§1)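 For relative viability, nuclei counts in treated wells were divided by those in vehicle wells. Lung cancer cell lines had been pin-tool dosed in 1536-well plates the day after seeding and cultured for 5 days, then fixed and stained in one step (final 0.05% Triton X-100, 1% formaldehyde, 1 ug/ml Hoechst) and imaged at 4×. Doses were one drug alone or a fixed anchor-drug dose plus five library-drug doses (not always all listed) in √10 steps, and values are duplicate-plate medians.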
# Bosutinib + Linsitinib = compound: COc1cc(Nc2c(C#N)cnc3cc(OCCCN4CCN(C)CC4)c(OC)cc23)c(Cl)cc1Cl [Bosutinib] + C[C@]1(O)C[C@@H](c2nc(-c3ccc4ccc(-c5ccccc5)nc4c3)c3c(N)nccn32)C1 [Linsitinib] (partner 1 µM)
# Method in brief: as §1
# Bosutinib + Pemetrexed = compound: COc1cc(Nc2c(C#N)cnc3cc(OCCCN4CCN(C)CC4)c(OC)cc23)c(Cl)cc1Cl [Bosutinib] + Nc1nc2[nH]cc(CCc3ccc(C(=O)N[C@@H](CCC(=O)O)C(=O)O)cc3)c2c(=O)[nH]1 [Pemetrexed] (partner 0.2 µM)
# Method in brief: as §1
# Bosutinib + Crizotinib = compound: COc1cc(Nc2c(C#N)cnc3cc(OCCCN4CCN(C)CC4)c(OC)cc23)c(Cl)cc1Cl [Bosutinib] + C[C@@H](Oc1cc(-c2cnn(C3CCNCC3)c2)cnc1N)c1c(Cl)ccc(F)c1Cl [Crizotinib] (partner 1 µM)
# Method in brief: as §1
# Bosutinib + Olaparib = compound: COc1cc(Nc2c(C#N)cnc3cc(OCCCN4CCN(C)CC4)c(OC)cc23)c(Cl)cc1Cl [Bosutinib] + O=C(c1cc(Cc2n[nH]c(=O)c3ccccc23)ccc1F)N1CCN(C(=O)C2CC2)CC1 [Olaparib] (partner 8 µM)
# Method in brief: as §1
Cell Line,relative viability (Bosutinib + Trametinib; first compound 0.01 µM),relative viability (Bosutinib + Trametinib; first compound 0.03162 µM),relative viability (Bosutinib + Trametinib; first compound 0.1 µM),relative viability (Bosutinib + Trametinib; first compound 1 µM),relative viability (Bosutinib + Linsitinib; first compound 0.01 µM),relative viability (Bosutinib + Linsitinib; first compound 0.03162 µM),relative viability (Bosutinib + Linsitinib; first compound 0.1 µM),relative viability (Bosutinib + Linsitinib; first compound 1 µM),relative viability (Bosutinib + Pemetrexed; first compound 0.01 µM),relative viability (Bosutinib + Pemetrexed; first compound 0.03162 µM),relative viability (Bosutinib + Pemetrexed; first compound 0.1 µM),relative viability (Bosutinib + Pemetrexed; first compound 1 µM),relative viability (Bosutinib + Crizotinib; first compound 0.01 µM),relative viability (Bosutinib + Crizotinib; first compound 0.03162 µM),relative viability (Bosutinib + Crizotinib; first compound 0.1 µM),relative viability (Bosutinib + Crizotinib; first compound 1 µM),relative viability (Bosutinib + Olaparib; first compound 0.01 µM),relative viability (Bosutinib + Olaparib; first compound 0.03162 µM),relative viability (Bosutinib + Olaparib; first compound 0.1 µM),relative viability (Bosutinib + Olaparib; first compound 1 µM)
201T,0.745,0.696,0.682,0.708,1.08,0.987,1.02,0.966,0.283,0.302,0.324,0.369,0.982,1.06,1.1,0.945,0.829,0.884,0.888,0.76
A-427,0.832,0.822,0.783,0.681,1.1,1.13,1.21,1.02,1.01,1.07,1.02,1.01,0.867,0.954,0.877,0.61,0.73,0.764,0.742,0.68
ABC-1,–,–,–,–,0.858,0.931,0.647,0.359,–,–,–,–,1.01,1.04,1.21,0.708,0.531,0.964,0.743,0.46
BEN,1.02,0.855,1.01,0.804,0.981,0.798,1.01,0.604,0.641,0.772,0.746,0.576,0.836,0.857,0.795,0.519,1.04,1.05,1.04,0.735
CAL-12T,0.28,0.366,0.334,0.234,0.739,0.932,0.891,0.71,1.09,1.26,1.29,1.18,0.543,0.7,0.638,0.362,0.704,0.665,0.64,0.766
COR-L23,0.706,0.548,0.568,0.541,1,0.96,0.895,0.887,0.2,0.205,0.224,0.218,0.663,0.589,0.571,0.749,0.341,0.353,0.348,0.309
COR-L 105,0.51,0.381,0.42,0.389,0.948,1.21,0.857,0.59,1.22,1.1,0.979,0.777,0.938,0.798,0.617,0.507,0.677,0.743,0.844,0.603
ChaGo-K-1,0.91,0.89,0.891,0.875,–,–,–,–,0.244,0.26,0.249,0.265,1.21,1.14,1.09,1.17,0.432,0.458,0.401,0.435
EKVX,0.306,0.334,0.364,0.228,0.974,0.982,1,0.539,0.403,0.406,0.381,0.361,0.895,0.753,1.01,0.481,0.925,0.86,0.876,0.628
EMC-BAC-2,0.848,0.887,0.857,0.773,0.852,0.791,0.832,0.733,0.426,0.444,0.446,0.448,0.763,0.756,0.789,0.759,0.48,0.525,0.51,0.621
EPLC-272H,0.297,0.281,0.281,0.281,1.18,1.25,1.31,1.14,0.324,0.382,0.323,0.319,0.904,1.17,1.05,0.818,0.722,0.909,0.626,0.515
H3255,–,0.578,0.63,0.422,0.94,0.974,0.994,0.45,0.555,0.596,0.621,0.446,0.901,0.855,0.853,0.354,0.568,0.56,0.598,0.421
HARA,0.943,0.745,0.633,0.57,1.01,0.913,0.892,0.629,0.237,0.27,0.244,0.264,1.14,0.955,0.995,0.642,0.896,0.825,0.761,0.515
HCC-15,0.396,0.457,0.383,0.328,0.905,0.837,0.954,0.803,0.227,0.244,0.226,0.221,0.809,0.846,0.844,0.771,0.652,0.699,0.695,0.661
HCC-44,1.03,1.04,1.09,1.05,0.696,0.619,0.674,0.559,0.661,0.642,0.683,0.603,0.809,0.782,0.764,0.755,0.981,0.923,0.978,1.04
HCC-78,0.84,0.712,0.768,0.725,0.575,0.492,0.52,0.407,0.893,0.916,0.936,0.859,0.358,0.319,0.284,0.314,0.722,0.937,0.888,0.687
HCC-366,0.319,0.226,0.326,0.215,0.708,0.604,0.457,0.0753,0.167,0.158,0.162,0.166,0.59,0.6,0.516,0.316,0.406,0.378,0.376,0.19

Cell Line,relative viability (Bosutinib + Trametinib; first compound 0.01 µM),relative viability (Bosutinib + Trametinib; first compound 0.03162 µM),relative viability (Bosutinib + Trametinib; first compound 0.1 µM),relative viability (Bosutinib + Trametinib; first compound 1 µM),relative viability (Bosutinib + Linsitinib; first compound 0.01 µM),relative viability (Bosutinib + Linsitinib; first compound 0.03162 µM),relative viability (Bosutinib + Linsitinib; first compound 0.1 µM),relative viability (Bosutinib + Linsitinib; first compound 1 µM),relative viability (Bosutinib + Pemetrexed; first compound 0.01 µM),relative viability (Bosutinib + Pemetrexed; first compound 0.03162 µM),relative viability (Bosutinib + Pemetrexed; first compound 0.1 µM),relative viability (Bosutinib + Pemetrexed; first compound 1 µM),relative viability (Bosutinib + Crizotinib; first compound 0.01 µM),relative viability (Bosutinib + Crizotinib; first compound 0.03162 µM),relative viability (Bosutinib + Crizotinib; first compound 0.1 µM),relative viability (Bosutinib + Crizotinib; first compound 1 µM),relative viability (Bosutinib + Olaparib; first compound 0.01 µM),relative viability (Bosutinib + Olaparib; first compound 0.03162 µM),relative viability (Bosutinib + Olaparib; first compound 0.1 µM),relative viability (Bosutinib + Olaparib; first compound 1 µM)
HCC-827,0.55,0.6,0.594,0.18,0.987,0.967,0.914,0.843,0.248,0.282,0.273,0.231,0.874,0.943,0.91,0.605,0.609,0.817,0.626,0.217
HOP-62,0.377,0.425,0.401,0.354,0.881,0.949,1.01,1.11,0.297,0.414,0.317,0.317,0.897,0.949,0.964,0.986,–,0.395,0.451,0.435
IA-LM,–,–,–,–,0.637,0.744,0.754,0.745,–,–,–,–,0.733,0.777,0.839,0.688,0.964,0.927,0.858,0.77
LC-2-ad,0.953,0.898,0.892,0.859,0.902,0.879,0.871,0.78,0.266,0.306,0.287,0.27,0.449,0.473,0.445,0.539,0.719,0.672,0.678,0.732
LCLC-97TM1,0.201,0.209,0.192,0.179,0.213,0.216,0.209,0.175,0.18,0.181,0.211,0.228,0.369,0.494,0.443,0.414,0.41,0.402,0.372,0.351
LCLC-103H,0.747,0.685,0.672,0.656,1.11,1.12,1.04,1.04,0.442,0.516,0.5,0.449,1.03,1.11,0.992,0.849,0.734,0.774,0.741,0.782
LK-2,0.873,0.784,0.667,0.672,0.671,0.55,0.523,0.337,0.235,0.281,0.321,0.266,0.258,0.227,0.248,0.224,0.538,0.962,0.807,0.707
LOU-NH91,0.816,0.805,0.771,0.672,0.939,0.921,0.834,0.521,0.394,0.395,0.378,0.4,0.737,0.723,0.707,0.49,0.889,0.868,0.898,0.697
LU99A,0.53,0.623,0.645,0.517,0.587,0.576,0.584,0.678,0.2,0.208,0.193,0.182,0.527,0.561,0.563,0.647,0.234,0.291,0.284,0.245
NCI-H522,0.723,0.711,0.689,0.723,–,–,–,–,0.982,0.985,0.86,0.863,–,–,–,–,0.616,0.645,0.735,0.619
NCI-H727,0.377,0.359,0.378,0.305,0.231,0.386,0.305,0.182,–,–,–,–,0.725,0.885,0.701,0.378,0.6,0.87,0.69,0.563
NCI-H1395,0.992,0.993,1.02,0.928,1.28,1.17,1.27,0.994,0.964,0.966,0.958,0.926,–,–,–,–,0.456,0.511,0.468,0.487
NCI-H1650,0.532,0.584,0.6,0.312,–,–,–,–,0.304,0.366,0.404,0.301,0.921,0.989,0.908,0.496,0.705,0.717,0.632,0.565
NCI-H1703,–,–,–,–,0.804,0.932,0.587,0.388,–,–,–,–,0.769,0.667,0.493,0.319,0.371,0.471,0.311,0.26
NCI-H1793,0.383,0.394,0.454,0.298,0.875,0.742,0.904,0.551,0.86,0.792,0.829,0.639,–,–,–,–,0.815,0.804,0.755,0.539
NCI-H2170,0.93,0.896,0.948,0.946,–,–,–,–,0.261,0.262,0.251,0.26,1.25,1.14,1.15,1.06,0.529,0.571,0.539,0.499
SW 900,0.809,0.674,0.784,0.61,–,–,–,–,0.465,0.501,0.462,0.39,–,–,–,–,0.824,0.769,0.766,0.538
